Data from patent US20240252496A1, “SELECTIVE HYPOTHALAMUS PERMEABLE HDAC6 INHIBITORS FORTREATMENT OF LEPTIN-RESISTANT OBESITY” (The Children’s Medical Center Corporation, priority 2022, published 2024).
Entries after “also recorded” stand apart in the source; their conditions may differ.

Key:
DIO mice [1] = assay: Chronic treatment of DIO mice (body weight, food intake, leptin, DEXA); format: in vivo; details: for body weight effect of chronic treatment: DIO mice, 3 weeks i.p., bavarostat 10, citarinostat 25, ricolinostat 50 mg/kg; for food intake and total body fat mass: high fat diet induced mice, summary
Experimental: DIO mice were treated with ACY775 (10 mg/kg/day, i.p.) for 3 weeks. Daily body weight (g) of DIO mice treated with vehicle (n=17) or ACY775 (n=17) during 3 weeks of treatment was determined. Daily food intake (g) during 3 weeks of vehicle or ACY775 treatment was assessed. 24 hours' food intake per mouse during the first week of vehicle or ACY775 treatment was determined. Serum leptin (ng/ml) levels after 3 weeks of vehicle (n=24) or ACY775 (n=24) treatment was assessed. Lean mass (g), fat mass (g) and fat percentage (%) after 3 weeks of vehicle (n=17) or ACY775 (n=17) treatment measured by Dual-energy X-ray absorptiometry (DEXA) scan. DEXA scans were performed in two different cohorts. Glucose tolerance test (GTT) after 1 week of vehicle (n=33) or ACY775 (n=26) treated DIO mice was assessed. Area of curve (AOC) analysis for GTT was performed. Blood glucose (mg/dl) levels after 1 week of vehicle (n=17) or ACY775 (n=16) were assessed in treated DIO mice. Insulin tolerance test (ITT) was performed after 2 weeks of vehicle (n=31) or ACY775 (n=21) treatment of DIO mice. Serum insulin (ng/ml) levels were measured after 3 weeks of vehicle (n=22) or ACY775 (n=21) in treated DIO mice. A homeostatic model assessment of insulin resistance (HOMA-IR) was analyzed after 3 weeks of vehicle (n=14) or ACY775 (n=13) treated DIO mice.
Food intake was analyzed hourly until 3:00 am. […] DEXA scans were performed in two different cohorts.
DIO mice then were treated with ricolinostat (50 mg/kg, i.p.) for 3 weeks. Daily body weight (g), daily food intake (g), serum leptin (ng/ml) levels after 3 weeks of vehicle (n=8) or ricolinostat (n=8) treatment, lean mass (g); fat mass and fat percentage (%) after 3 weeks of vehicle (n=16) or ricolinostat (n=17) treatment measured by DEXA scan were determined.
Studies were conducted as described above with reference to ACY775.
DIO mice then were treated with bavarostat (10 mg/kg, i.p.) for 3 weeks and daily body weight (g) of DIO mice treated with Veh (n=9) or bavarostat (n=9) measured during the three weeks of treatment period. Daily food intake (g) during 3 weeks of Veh or bavarostat treatment was also measured.
ACY1083 was administered to DIO mice as described in Example 3.

[2] = cited from earlier work; for brain penetrance / BBB permeability: in words
[3] = Brain/plasma ratio, brain and hypothalamus penetrance; format: in vivo; details: in words
HDAC6 KO mice = assay: 3-week treatment of DIO WT versus HDAC6 KO mice; format: in vivo; details: for body weight, HDAC6 KO vs WT DIO mice: 3 weeks i.p., ACY775 10, ACY738 50, Tubastatin A 25 mg/kg/day
HDAC6 [4] = molecular target: HDAC6 (Mus musculus (Mouse), UniProt Q9Z2V5); assay: HDAC6 inhibition in hypothalamus and other brain regions (Ac-tubulin); set-up: species or system mice; details: in vivo
HDAC6 (Mus musculus (Mouse), UniProt Q9Z2V5), sequence (Q9Z2V5 whole entry): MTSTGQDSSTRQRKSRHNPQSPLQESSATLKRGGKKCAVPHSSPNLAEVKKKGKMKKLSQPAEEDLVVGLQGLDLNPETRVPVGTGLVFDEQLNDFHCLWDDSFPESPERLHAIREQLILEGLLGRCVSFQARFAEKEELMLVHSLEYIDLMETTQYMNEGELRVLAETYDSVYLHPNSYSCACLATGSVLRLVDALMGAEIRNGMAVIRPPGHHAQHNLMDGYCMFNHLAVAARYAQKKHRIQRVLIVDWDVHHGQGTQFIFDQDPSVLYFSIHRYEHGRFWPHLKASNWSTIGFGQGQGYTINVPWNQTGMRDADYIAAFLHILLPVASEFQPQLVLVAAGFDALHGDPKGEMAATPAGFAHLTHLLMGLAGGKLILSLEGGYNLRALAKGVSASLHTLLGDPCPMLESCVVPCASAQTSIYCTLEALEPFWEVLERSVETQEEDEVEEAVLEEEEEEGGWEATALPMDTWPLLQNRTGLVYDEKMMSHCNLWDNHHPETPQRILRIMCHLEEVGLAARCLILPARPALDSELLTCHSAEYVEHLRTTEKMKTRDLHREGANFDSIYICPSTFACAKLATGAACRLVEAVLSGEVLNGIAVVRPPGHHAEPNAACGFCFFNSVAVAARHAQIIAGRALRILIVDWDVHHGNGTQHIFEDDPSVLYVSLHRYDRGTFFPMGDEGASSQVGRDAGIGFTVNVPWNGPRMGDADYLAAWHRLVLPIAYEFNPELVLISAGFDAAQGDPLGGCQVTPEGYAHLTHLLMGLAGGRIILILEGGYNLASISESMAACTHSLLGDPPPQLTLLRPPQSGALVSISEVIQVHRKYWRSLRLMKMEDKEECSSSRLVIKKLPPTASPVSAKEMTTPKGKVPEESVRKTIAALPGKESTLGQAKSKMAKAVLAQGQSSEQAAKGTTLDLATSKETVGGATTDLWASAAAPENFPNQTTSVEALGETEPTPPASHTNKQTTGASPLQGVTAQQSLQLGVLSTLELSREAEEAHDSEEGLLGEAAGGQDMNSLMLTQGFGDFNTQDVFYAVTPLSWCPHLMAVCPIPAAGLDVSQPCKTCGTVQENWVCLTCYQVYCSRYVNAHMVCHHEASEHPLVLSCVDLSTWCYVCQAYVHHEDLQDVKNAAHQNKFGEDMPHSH

HDAC6 in AgRP neurons = assay: DIO mice with HDAC6 deleted in AgRP neurons (HDAC6^Agrp-Δ); format: in vivo; details: chronic treatment
Experimental: Design, validation, and stereotaxic injection of AAV viral vector carrying the guide RNAs targeting the mouse HDAC6 genomic locus. Three designed sgRNAs were concatenated and constructed into an AAV vector carrying a cre-enabled mCherry fluorescent marker.
Following the bilateral injection of AAV-sgHDAC6 into the arcuate nucleus of Agrp-ires-cre::LSL-Cas9-GFP (Agrp-Cre^+/−::Cas9^+/−) or control LSL-Cas9-GFP (Cas9^+/−) mice, immunostaining to detect the expression of mCherry and GFP was performed. AAV-sg-HDAC6 injected Agrp-Cre^+/−::Cas9^+/− (HDAC6^Agrp-Δ) and Cas9^+/− (HDAC6^WT) DIO mice (n=7 for each group) were fasted for 24 hours, and injected with ACY775 (10 mg/kg. i.p). Hourly total dark cycle food intake (g) (n=7 for each group) of these mice after ACY775 injection was measured. Body weight of AAV-sg-HDAC6 injected HDAC6^Agrp-Δ (n=11) and HDAC6^WT (n=6) mice were measured during 3 weeks of ACY775 (10 mg/kg/day, i.p.) treatment. Daily average food intake of HDAC6^Agro-Δ (n=11) and HDAC6^WT (n=6) mice was measured during 3 weeks of ACY775 (10 mg/kg/day, i.p.) treatment. 24-hour food intake average of HDAC Agrp- and HDAC6^WT mice during the 3 weeks of ACY775 treatment was assessed. Serum leptin level (ng/ml) of HDAC6^Agrp-Δ and HDAC6^WT mice after 2 weeks of ACY775 treatment (n=13 for HDAC6^WT and n=18 for HDAC6^Agrp-Δ) was measured. Lean mass (g); fat mass; and fat percentage (%) of HDAC Agrp- and HDAC6^WT DIO mice after 3 weeks of ACY775 treatment was measured by DEXA scan. The HDAC6 inhibitor responsive neurons in the dorsomedial hypothalamus (DMH) were assessed. Immunostaining and quantification of c-Fos expression was performed in the DMH of DIO mice following one-time ACY775 treatment (10 mg/kg, i.p.).

diet-induced obese mice = details: cited from earlier work
[5] = 5 mg/kg i.p.; cited from earlier work
DIO mice [6] = assay: Chronic treatment of DIO mice (body weight, food intake, leptin, DEXA); format: in vivo; details: oral administration
HDAC6 [7] = molecular target: HDAC6 (Homo sapiens (Human), UniProt Q9UBN7); details: cited from earlier work
HDAC6 (Homo sapiens (Human), UniProt Q9UBN7), sequence (Q9UBN7 whole entry, species assumed): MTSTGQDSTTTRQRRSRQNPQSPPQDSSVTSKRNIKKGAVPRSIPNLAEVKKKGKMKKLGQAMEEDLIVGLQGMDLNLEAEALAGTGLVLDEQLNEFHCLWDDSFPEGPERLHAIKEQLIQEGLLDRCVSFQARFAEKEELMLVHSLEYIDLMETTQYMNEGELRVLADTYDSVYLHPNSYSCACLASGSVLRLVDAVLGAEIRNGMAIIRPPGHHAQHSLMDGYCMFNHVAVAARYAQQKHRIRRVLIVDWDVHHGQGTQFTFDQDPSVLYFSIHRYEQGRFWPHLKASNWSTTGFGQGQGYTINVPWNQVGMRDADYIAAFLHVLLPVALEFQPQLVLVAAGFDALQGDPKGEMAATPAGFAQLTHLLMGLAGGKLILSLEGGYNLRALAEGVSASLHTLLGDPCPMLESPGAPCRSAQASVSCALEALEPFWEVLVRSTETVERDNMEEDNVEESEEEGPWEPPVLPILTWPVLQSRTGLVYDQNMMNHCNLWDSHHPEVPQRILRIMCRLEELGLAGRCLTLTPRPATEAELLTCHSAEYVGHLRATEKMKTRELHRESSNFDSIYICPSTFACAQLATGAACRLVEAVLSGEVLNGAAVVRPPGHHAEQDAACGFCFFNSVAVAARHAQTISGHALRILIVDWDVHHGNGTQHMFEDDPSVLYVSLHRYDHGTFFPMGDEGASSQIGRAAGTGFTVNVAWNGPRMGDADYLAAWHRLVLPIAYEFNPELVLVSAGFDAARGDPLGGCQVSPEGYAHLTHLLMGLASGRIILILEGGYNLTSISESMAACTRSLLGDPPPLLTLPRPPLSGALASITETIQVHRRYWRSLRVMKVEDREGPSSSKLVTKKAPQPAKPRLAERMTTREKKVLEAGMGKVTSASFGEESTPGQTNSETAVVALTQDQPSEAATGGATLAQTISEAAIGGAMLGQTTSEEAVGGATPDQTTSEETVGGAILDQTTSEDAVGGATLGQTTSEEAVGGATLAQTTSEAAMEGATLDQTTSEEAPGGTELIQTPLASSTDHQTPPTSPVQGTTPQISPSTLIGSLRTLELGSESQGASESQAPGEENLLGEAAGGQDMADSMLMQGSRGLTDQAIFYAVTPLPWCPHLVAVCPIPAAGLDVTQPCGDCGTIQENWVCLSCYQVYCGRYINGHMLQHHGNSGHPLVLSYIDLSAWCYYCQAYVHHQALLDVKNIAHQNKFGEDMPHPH

[8] = test system: STAT3^Tyr705 phosphorylation; assay: Leptin-stimulated hypothalamic STAT3 phosphorylation in DIO mice; format: in vivo; details: leptin 1 mg/kg i.p.
Experimental: DIO mice were pretreated with ACY775 (10 mg/kg/day, i.p.) or vehicle for 3 days, which was followed by a last injection of ACY775 (or vehicle) in the morning of fourth day. 6 hours later mice were injected with saline or leptin (1 mg/kg, i.p.) and hypothalamus were extracted after 45 minutes following the leptin injection. Representative immunoblots for STAT3^Tyr705 phosphorylation and total STAT3 from the hypothalamus. Quantification of the ratio of p-STAT3^Tyr705 to total-STAT3 signal in the immunoblots. The results were reproduced in three independent experiments. The results were analyzed hourly.
DIO mice were pretreated with ACY775 (10 mg/kg/day, i.p.) or vehicle for 3 days, which was followed by a last injection of ACY775 (or vehicle) in the morning of fourth day. 6 hours later mice were injected with saline or leptin (1 mg/kg, i.p.) and the hypothalamus were extracted after 45 minutes following the leptin injection.
6 hours later mice were injected with saline or leptin (1 mg/kg, i.p.) and hypothalamus were extracted after 45 minutes following the leptin injection. Immunoblots for STAT3^Tyr705 phosphorylation and total STAT3 from the hypothalamus were made to quantify the ratio of p-STAT3^Tyr705 to total-STAT3 signal in the immunoblots. The results were reproduced in two independent experiments.
DIO mice were pretreated with ricolinostat (50 mg/kg/day, i.p.) or vehicle 3 days, which was followed by a last injection of ricolinostat (or vehicle) in the morning of fourth day. 6 hours later mice were injected with saline or leptin (1 mg/kg, i.p.) and the hypothalamus were extracted after 45 minutes following the leptin injection. Immunoblots were performed for STAT3^Tyr705 phosphorylation and total STAT3 from the hypothalamus. The ratio of p-STAT3^Tyr705 to total STAT3 signal in the immunoblots was quantified.

DIO mice [9] = assay: Acute leptin co-treatment in DIO mice (body weight, food intake 15 h); format: in vivo; details: leptin 1 mg/kg i.p.
Experimental: DIO mice were pretreated with ACY775 (10 mg/kg/day, i.p.) or vehicle for 3 days, which was followed by co-treatment with ACY775 (or vehicle) and leptin (1 mg/kg, i.p.) (or saline) (n=9 for each group), % change in body weight 15 h after leptin treatment, food intake (g) during the 15 h period after leptin treatment. The results in were reproduced in two independent experiments.
Diet induced obese (DIO) mice were pretreated with ACY775 (10 mg/kg/day, i.p.) or vehicle for 3 days, which was followed by co-treatment with ACY775 (or vehicle) and leptin (1 mg/kg, i.p.) (or saline) (n=9 for each group). Mice were evaluated for % change in body weight 15 h after leptin treatment, and food intake (g) during the 15 h period after leptin treatment.
DIO mice were pretreated with ricolinostat (25 mg/kg/day, i.p.) or vehicle for 3 days, which was followed by co-treatment with ricolinostat (or vehicle) and leptin (1 mg/kg, i.p.) (or saline) (n=32 for each group). Change in body weight 15 h after leptin treatment, and food intake (g) during the 15 h period after leptin treatment were determined. The results were reproduced in two independent experiments.

With `CN(Cc1ccc(C(=O)NO)cc1F)CC12CC3CC(CC(C3)C1)C2` [Bavarostat, 4-(((((3r,5r,7r)-adamantan-1-yl)methyl)(methyl)amino)methyl)-3-fluoro-N-hydroxybenzamide] as the compound, how does the “body weight effect of chronic treatment” value (DIO mice [1]) read?
Its value is “Significant weight loss; also recorded: statistically significantly effective in reducing food intake and body weight”.

And the “food intake and total body fat mass” value (DIO mice [1])?
Its value is “significant reduction of food intake and total body fat mass”.

What about the “brain penetrance / BBB permeability” value [2] of the same compound?
Its value is “high brain penetrance”.

What about the “penetrance into the hypothalamus” value [3] of the same compound?
The value was “high penetrance of the hypothalamus”.

And the “body weight, HDAC6 KO vs WT DIO mice” value (HDAC6 KO mice)?
The value was “treatment of wild type mice but not HDAC6 Knockout animals with bavarostat caused weight loss”.

Which results are given for `CN1CCc2c(c3ccccc3n2Cc2ccc(C(=O)NO)cc2)C1` [Tubastatin A]?
brain/plasma ratio ([2]; in vivo): 0.18; brain penetrance / BBB permeability [2]: extremely low; penetrance into the hypothalamus [3]: neither of which have high penetrance into the hypothalamus; HDAC6 inhibition in the hypothalamus (HDAC6 [4]): nor show HDAC6 inhibition in the hypothalamus; body weight, HDAC6 KO vs WT DIO mice (HDAC6 KO mice): reduced the body weight of the HDAC6 KO mice the same as the wt mice; fat mass and fat %, HDAC6 KO vs WT (HDAC6 KO mice; DEXA): significantly lower in both wt and HDAC6 KO groups; lean mass, HDAC6 KO vs WT (HDAC6 KO mice; DEXA): not different; blood glucose, serum insulin and leptin levels, HDAC6 KO vs WT (HDAC6 KO mice; mouse, in vivo): reduced equally in the wt and HDAC6 KO group; food intake, HDAC6 KO vs WT DIO mice (HDAC6 KO mice; mouse, in vivo): reduced similarly; glucose tolerance and insulin sensitivity (GTT, ITT), HDAC6 KO vs WT (HDAC6 KO mice; mouse, in vivo): improved glucose tolerance and increased insulin sensitivity in both wt and the HDAC6 KO mice; anti-obesity effects in HDAC6^Agrp-Δ vs HDAC6^WT DIO mice (HDAC6 in AgRP neurons): did not change Tubastatin A's effects on suppressing feeding or body weight; anti-obesity effects reported by Cakir et al. (diet-induced obese mice): reduce food intake, fat mass, hepatic steatosis and improve systemic glucose homeostasis; also recorded: attenuated in animals with a defective central leptin-melanocortin circuitry

With `CC1CCC(C(C)(C2CCC(C)CC2)C2CCC(C(C)C(C)CCCCC(C)C(C)C)CC2)CC1` (centres unmarked) [ACY257] as the compound, how does the Cmax [5] read?
The Cmax was 1047 ng/mL.

And the “Plasma AUClast” value [5]?
Its value is 871 (5 mg/kg i.p.) hr*ng/ml.

And the T1/2 [5]?
The T1/2 was 8.15 h.

And the “body weight effect of chronic treatment” value (DIO mice [1])?
The value was “as effective as ACY775 in reducing body weight; also recorded: Significant weight loss; also recorded: as effective as ACY775 in lowering body weight”.

And the “body weight effect of chronic treatment” value (DIO mice [1]; listed as ACY 257)?
Its value is “greatly reduces body weight”.

And the “food intake and total body fat mass” value (DIO mice [1])?
The value was “significant reduction of food intake and total body fat mass”.

What about the “AUC Brain/AUC Plasma Ratio” value ([2]; in vivo) of the same compound?
Its value is 0.01.

And the “brain penetrance / BBB permeability” value [2]?
Its value is “limited brain expression”.

What about the “penetrance into the hypothalamus” value [3] of the same compound?
Its value is “high penetrance into the arctuate nucleus of the hypothalamus”.

What about the “HDAC6 inhibition in other brain regions (cerebrum, frontal lobe, temporal lobe, brainstem)” value (HDAC6 [4]) of the same compound?
Its value is “does not inhibit HDAC6 in other brain regions”.

And the “HDAC6 inhibition in the hypothalamus” value (HDAC6 [4])?
The value was “inhibits HDAC6 in the hypothalamus”.

Which results are given for `O=C(NO)c1cnc(NC2(c3ccccc3)CCC(F)(F)CC2)nc1` [ACY1083]?
food intake and total body fat mass (DIO mice [1]): significant reduction of food intake and total body fat mass; body weight over 14 days (DIO mice [6]): significant decrease in body weight; also recorded: Significant weight loss; also recorded: reduced body weight; selectivity for HDAC6 than all other classes of HDAC isoforms (HDAC6 [7]): 260 fold; brain penetrance / BBB permeability [2]: brain-penetrating

With “leptin: peptide hormone, product of the obese (ob) gene” as the compound, how does the “hypothalamic STAT3^Tyr705 phosphorylation, leptin in vehicle-treated mice” value [8] read?
Its value is “did not significantly increase STAT3^Tyr705 phosphorylation”.

What about the “body weight, leptin alone” value (DIO mice [9]) of the same compound?
The value was “did not significantly alter their bodyweight; also recorded: did not change their bodyweight”.

And the “food intake, leptin alone” value (DIO mice [9])?
Its value is “did not significantly change the food intake”.

Which “body weight effect of chronic treatment” value (DIO mice [1]) does the source give for `O=C(CCCCCCNC(=O)c1cnc(N(c2ccccc2)c2ccccc2Cl)nc1)NO` [Citarinostat] here?
The value was “not effective in reducing body weight”.

What about the “body weight effect of chronic treatment” value (DIO mice [1]; listed as citarinostat) of the same compound?
Its value is “ineffective weight lowering effect”.

And the “brain penetrance / BBB permeability” value [2]?
Its value is “good brain penetrance”.

And the “HDAC6 inhibition in other brain regions (cerebrum, frontal lobe, temporal lobe, brainstem)” value (HDAC6 [4])?
Its value is “inhibits HDAC6 in other brain regions”.

And the “HDAC6 inhibition in the hypothalamus” value (HDAC6 [4])?
Its value is “not in the hypothalamus”.

What about the “HDAC6 inhibition in the hypothalamus” value (HDAC6 [4]; listed as citarinostat) of the same compound?
Its value is “does not show HDAC6 inhibition in the AGP neurons in the hypothalamus”.
